According to BindingDB's records for doi:10.7270/Q2DR2SWV (Vanderbilt Screening Center For Gpcrs, Ion Channels and …, 2010):

Molecular target: Metabotropic glutamate receptor 4 [Q124R] (Rattus norvegicus, UniProt P31423, Q124R)
Test: PubChem AID 2185

Chain of Metabotropic glutamate receptor 4 [Q124R] (P31423 33-912 Q124R limits assumed): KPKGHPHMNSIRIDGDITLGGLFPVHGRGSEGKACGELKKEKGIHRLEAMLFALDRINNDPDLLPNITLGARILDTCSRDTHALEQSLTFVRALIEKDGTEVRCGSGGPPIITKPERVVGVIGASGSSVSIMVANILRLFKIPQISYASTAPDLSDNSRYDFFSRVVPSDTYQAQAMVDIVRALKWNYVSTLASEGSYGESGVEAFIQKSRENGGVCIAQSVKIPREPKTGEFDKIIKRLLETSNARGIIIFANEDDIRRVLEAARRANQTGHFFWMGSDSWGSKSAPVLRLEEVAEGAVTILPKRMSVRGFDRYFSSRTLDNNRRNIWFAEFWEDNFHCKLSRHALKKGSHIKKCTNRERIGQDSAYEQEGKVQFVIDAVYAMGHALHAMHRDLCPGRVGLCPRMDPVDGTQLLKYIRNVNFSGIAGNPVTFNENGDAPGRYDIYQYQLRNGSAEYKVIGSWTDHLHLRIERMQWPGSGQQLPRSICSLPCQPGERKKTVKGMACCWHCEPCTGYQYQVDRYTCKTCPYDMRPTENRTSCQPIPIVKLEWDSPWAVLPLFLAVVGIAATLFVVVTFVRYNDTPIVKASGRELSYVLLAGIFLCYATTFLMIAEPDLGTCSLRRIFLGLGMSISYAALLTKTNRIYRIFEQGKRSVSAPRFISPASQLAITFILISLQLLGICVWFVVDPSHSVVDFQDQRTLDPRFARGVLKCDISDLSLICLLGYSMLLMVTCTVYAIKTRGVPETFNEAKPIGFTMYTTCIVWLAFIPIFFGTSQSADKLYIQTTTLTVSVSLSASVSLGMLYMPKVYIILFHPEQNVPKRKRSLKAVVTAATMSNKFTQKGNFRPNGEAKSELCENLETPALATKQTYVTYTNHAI

SMILES | EC50
O=C(Nc1ccc(F)c(C(F)(F)F)c1)c1ccccn1 | 0.999 µM
O=C(Nc1ccc(-n2c(O)c3c(c2O)[C@H]2CC[C@@H]3O2)c(Cl)c1)c1ccccn1 [VU0405235-1] | 2.29 µM
COc1cc(NC(=O)c2ccccn2)ccc1C | 0.208 µM
COc1ccc(NC(=O)c2ccccn2)cc1OC | 2.35 µM
CC1(C)c2c1c(O)n(-c1ccc(NC(=O)c3ccccn3)cc1Cl)c2O [N-[3-chloranyl-4-[(1S,5R)-6,6-dimethyl-2,4-bis(oxidanylidene)-3-azabicyclo[3.1.0]hexan-3-yl]phenyl]pyridine-2-carboxamide] | 0.69 µM
O=C(Nc1ccc(-n2c(O)c3c(c2O)CCCC3)c(Cl)c1)c1ccccn1 [VU0366515-1] | 0.65 µM
COc1ccc(NC(=O)c2ccccn2)cc1Cl | 0.738 µM
O=C(Nc1ccc(-n2c(O)cc(-c3ccccc3)c2O)c(Cl)c1)c1ccccn1 [N-[3-chloro-4-(2,5-dioxo-3-phenyl-1-pyrrolidinyl)phenyl]-2-pyridinecarboxamide] | 0.49 µM
O=C(Nc1ccc(Cl)c(C(F)(F)F)c1)c1ccccn1 | 1.71 µM
O=C(Nc1ccc(-n2c(O)ccc2O)c(Cl)c1)c1ccccn1 [N-[3-chloro-4-(2,5-dioxopyrrolidin-1-yl)phenyl]pyridine-2-carboxamide] | 6.89 µM
COc1cc(NC(=O)c2ccccn2)ccc1F | 0.374 µM
